According to patent publication US11337970B2, “Inhibitors of indoleamine 2,3-dioxygenase and methods of their use” (BRISTOL-MYERS SQUIBB COMPANY, priority 2016, dated 2022):

target: T1, indoleamine 2,3-dioxygenase (IDO) (Homo sapiens, UniProt P14902); test: HeLa cell-based indoleamine 2,3-dioxygenase (IDO) assay (kynurenine production); conditions: HeLa cells, IFNγ 25 ng/mL, 48 hour incubation, absorbance at 480 nm
T1 construct: host or cells: HeLa cells stimulated with IFNγ (25 ng/mL)
Description: Assessment of inhibitor activity in HeLa cell-based indoleamine 2,3-dioxygenase (IDO) assay:
HeLa (ATCC® CCL-2) cells were obtained from the ATCC® and cultured in Dulbecco's Modified Eagle Medium supplemented with 4.5 g/L glucose, […] (#10-013-CV, Corning), 2 mM L-alanyl-L-glutamine dipeptide (#35050-061, Gibco), 100U/mL penicillin, 100 μg/mL streptomycin (#SV30010, HyClone) and 10% fetal bovine serum (#SH30071.03 HyClone). Cells were maintained in a humidified incubator at 37° C. in 5% CO2.
IDO activity was assessed as a function of kynurenine production as follows: HeLa cells were seeded in a 96-well culture plate at a density of 5,000 cells/well and allowed to equilibrate overnight. After 24 hours, the media was aspirated and replaced with media containing IFNγ (#285-IF/CF, R&D Systems) at a final concentration of 25 ng/mL. A serial dilution of each test compound was added to the cells in a total volume of 200 μL of culture medium. After a further 48 hour incubation, 170 μL of supernatant was transferred from each well to a fresh 96-well plate. 12.1 μL of 6.1N trichloroacetic acid (#T0699, Sigma-Aldrich) was added to each well and mixed, followed by incubation at 65° C. for 20 minutes to hydrolyze N-formylkynurenine, the product of indoleamine 2,3-dioxygenase, to kynurenine. The reaction mixture was then centrifuged for 10 mins at 500×g to sediment the precipitate. 100 μL of the supernatant was transferred from each well to afresh 96-well plate. 100 μl of 2% (w/v) p-dimethylaminobenzaldehyde (#15647-7, Sigma-Aldrich) in acetic acid (#A6283, Sigma-Aldrich) was added to each well mixed and incubated at room temperature for 20 mins. Kynurenine concentrations were determined by measuring absorbance at 480 nm and calibrating against an L-kynurenine (#K8625, Sigma-Aldrich) standard curve using a SPECTRAMAX® M2e microplate reader (Molecular Devices). The percentage activity at each inhibitor concentration was determined and IC50 values assessed using nonlinear regression.

T1 sequence (P14902 whole entry): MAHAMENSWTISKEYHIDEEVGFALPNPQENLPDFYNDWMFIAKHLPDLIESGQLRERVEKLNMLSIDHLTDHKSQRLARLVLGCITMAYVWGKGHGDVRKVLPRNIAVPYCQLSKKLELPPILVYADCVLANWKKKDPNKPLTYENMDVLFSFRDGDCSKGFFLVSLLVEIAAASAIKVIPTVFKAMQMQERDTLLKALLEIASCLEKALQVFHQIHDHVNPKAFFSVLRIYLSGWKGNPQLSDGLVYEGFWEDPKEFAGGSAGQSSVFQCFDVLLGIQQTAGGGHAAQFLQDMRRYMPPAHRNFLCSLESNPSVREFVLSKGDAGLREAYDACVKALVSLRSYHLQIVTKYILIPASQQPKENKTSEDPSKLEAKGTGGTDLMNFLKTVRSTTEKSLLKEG

In order of falling IC50:
1. CC[C@H](c1nc2ncc(Cl)cc2[nH]1)[C@H]1CC[C@@H](c2ccnc3ccc(F)cc32)CC1 (single isomer, unassigned) [Example 21-2, 4-(4-(1-(6-chloro-1H-imidazo[4,5-b]pyridin-2-yl)propyl)cyclohexyl)-6-fluoroquinoline]  1000 nM
2. CCC(c1nc2ccc(Cl)cc2[nH]1)[C@H]1CC[C@@H](c2ccnc(F)c2C)CC1 (single isomer, unassigned) [Example 23-1, 6-chloro-2-(1-((cis)-4-(2-fluoro-3-methylpyridin-4-yl)cyclohexyl)-3-propyl)-1H-benzo[d]imidazole]  998 nM
3. C[C@@H](c1ncc2ccccn12)[C@H]1CC[C@@H](c2ccnc3ccc(F)cc32)CC1 [Example 27, 6-fluoro-4-((cis)-4-((R)-1-(imidazo[1,5-a]pyridin-3-yl)ethyl)cyclohexyl)quinoline]  836 nM
4. C[C@@H](c1nnc2ccccn12)[C@H]1CC[C@@H](c2ccnc3ccc(F)cc32)CC1 [Example 26, 4-((cis)-4-((R)-1-([1,2,4]triazolo[4,3-a]pyridin-3-yl)ethyl)cyclohexyl)-6-fluoroquinoline]  459 nM
5. CCC(c1nc2ncc(Cl)cc2[nH]1)[C@H]1CC[C@@H](c2ccnc(F)c2C)CC1 (single isomer, unassigned) [Example 24-1, 6-chloro-2-(1-((cis)-4-(2-fluoro-3-methylpyridin-4-yl)cyclohexyl)-3-propyl)-1H-imidazo[4,5-b]pyridine]  375 nM
6. C[C@H](c1nc2ccc(Cl)cc2[nH]1)[C@H]1CC[C@@H](c2ccnc(C(F)(F)F)c2)CC1 (single isomer, unassigned) [Example 39-1, 6-chloro-2-(1-(4-(2-(trifluoromethyl)pyridin-4-yl)cyclohexyl)ethyl)-1H-benzo[d]imidazole]  170 nM
7. CCC(c1nc2ncc(Cl)cc2[nH]1)[C@H]1CC[C@@H](c2ccnc3ccc(C(F)(F)F)cc32)CC1 (single isomer, unassigned) [Example 22-2, 4-((cis)-4-(1-(6-chloro-1H-imidazo[4,5-b]pyridin-2-yl)propyl)cyclohexyl)-6-(trifluoromethyl)quinoline]  99.1 nM
8. CC[C@H](c1nc2ncc(Cl)cc2[nH]1)[C@H]1CC[C@@H](c2ccnc3ccc(F)cc32)CC1 (single isomer, unassigned) [Example 21-4, 4-(4-(1-(6-chloro-1H-imidazo[4,5-b]pyridin-2-yl)propyl)cyclohexyl)-6-fluoroquinoline]  89.7 nM
9. CCOCC(c1nc2ccc(Cl)cc2[nH]1)[C@H]1CC[C@@H](c2ccnc(F)c2C)CC1 (mixture of isomers) [Example 25, (±)-6-chloro-2-(2-ethoxy-1-((cis)-4-(2-fluoro-3-methylpyridin-4-yl)cyclohexyl)ethyl)-1H-benzo[d]imidazole]  44.9 nM
10. CCOCC(c1nc2ccc(Cl)cc2[nH]1)[C@H]1CC[C@@H](c2ccnc(F)c2C)CC1 (single isomer, unassigned) [Example 25-2, 6-chloro-2-(2-ethoxy-1-((cis)-4-(2-fluoro-3-methylpyridin-4-yl)cyclohexyl)ethyl)-1H-benzo[d]imidazole]  22.9 nM
11. C[C@@H](c1nc2cc(C#N)ccc2[nH]1)[C@H]1CC[C@@H](c2ccnc3ccc(F)cc32)CC1 [Example 49, 2-((R)-1-((1s,4S)-4-(6-fluoroquinolin-4-yl)cyclohexyl)ethyl)-1H-benzo[d]imidazole-5-carbonitrile]  13.4 nM
12. C[C@@H](c1nc2cc(C(F)(F)F)cc(Cl)c2[nH]1)[C@H]1CC[C@@H](c2ccnc3ccc(F)cc32)CC1 [Example 46, 4-((1S,4s)-4-((R)-1-(7-chloro-5-(trifluoromethyl)-1H-benzo[d]imidazol-2-yl)ethyl)cyclohexyl)-6-fluoroquinoline]  12.2 nM
13. COCC(c1nc2ccc(Cl)cc2[nH]1)[C@H]1CC[C@@H](c2ccnc3ccc(C(F)(F)F)cc32)CC1 (mixture of isomers) [Example 18, (±)-4-((cis)-4-(1-(6-chloro-1H-benzo[d]imidazol-2-yl)-2-methoxyethyl)cyclohexyl)-6-(trifluoromethyl)quinoline]  12.1 nM
14. C[C@@H](c1nc2cc(OC(F)(F)F)ccc2[nH]1)[C@H]1CC[C@@H](c2ccnc3ccc(F)cc32)CC1 [Example 48, 6-fluoro-4-((1S,4s)-4-((R)-1-(5-(trifluoromethoxy)-1H-benzo[d]imidazol-2-yl)ethyl)cyclohexyl) quinoline]  10.7 nM
15. CCC(c1nc2ncc(Cl)cc2[nH]1)[C@H]1CC[C@@H](c2ccnc(F)c2C)CC1 (mixture of isomers) [Example 24, (±)-6-chloro-2-(1-((cis)-4-(2-fluoro-3-methylpyridin-4-yl)cyclohexyl)-3-propyl)-1H-imidazo[4,5-b]pyridine]  7.5 nM
16. Fc1ccc2nccc(C3CCC(C(CC(F)(F)F)c4nc5ccc(Cl)cc5[nH]4)CC3)c2c1 (racemic) [Example 33, (±)-Cis and trans-4-(4-(1-(6-chloro-1H-benzo[d]imidazol-2-yl)-3,3,3-trifluoropropyl)cyclohexyl)-6-fluoroquinoline]  7.5 nM
17. CCC(c1nc2ncc(Cl)cc2[nH]1)[C@H]1CC[C@H](Oc2ccnc3ccccc23)CC1 (single isomer, unassigned) [Example 20-1]  6 nM
18. CCC(c1nc2ncc(Cl)cc2[nH]1)[C@H]1CC[C@H](Oc2ccnc3ccccc23)CC1 (mixture of isomers) [Example 20, (±)-4-(((trans)-4-(1-(6-chloro-1H-imidazo[4,5-b]pyridin-2-yl)-3-propyl)cyclohexyl)oxy)quinoline]  5.8 nM
19. C[C@@H](c1nc2cc(Cl)c(Cl)cc2[nH]1)[C@H]1CC[C@@H](c2ccnc3ccc(F)cc32)CC1 [Example 44, 4-((1S,4s)-4-((R)-1-(5,6-dichloro-1H-benzo[d]imidazol-2-yl)ethyl)cyclohexyl)-6-fluoroquinoline]  5.5 nM
20. CC[C@H](c1nc2ncc(Cl)cc2[nH]1)[C@H]1CC[C@@H](c2ccnc3ccc(F)cc32)CC1 (single isomer, unassigned) [Example 21-3, 4-(4-(1-(6-chloro-1H-imidazo[4,5-b]pyridin-2-yl)propyl)cyclohexyl)-6-fluoroquinoline]  5.1 nM
21. CCC(c1nc2ncc(Cl)cc2[nH]1)[C@H]1CC[C@H](Oc2ccnc3ccccc23)CC1 (single isomer, unassigned) [Example 20-2]  4.5 nM
22. COCC(c1nc2ccc(Cl)cc2[nH]1)[C@H]1CC[C@@H](c2ccnc3ccc(F)cc32)CC1 (mixture of isomers) [Example 19, (±)-4-((cis)-4-(1-(6-chloro-1H-benzo[d]imidazol-2-yl)-2-methoxyethyl)cyclohexyl)-6-fluoroquinoline]  3.8 nM
23. CCC(c1nc2ncc(Cl)cc2[nH]1)[C@H]1CC[C@@H](c2ccnc3ccc(C(F)(F)F)cc32)CC1 (mixture of isomers) [Example 22, (±)-4-((cis)-4-(1-(6-chloro-1H-imidazo[4,5-b]pyridin-2-yl)propyl)cyclohexyl)-6-(trifluoromethyl)quinoline]  3.7 nM
24. C[C@@H](c1nc2cc(Cl)c(F)cc2[nH]1)[C@H]1CC[C@@H](c2ccnc3ccc(F)cc32)CC1 [Example 42]  3.7 nM
25. C[C@@H](c1nc2c(F)c(F)ccc2[nH]1)[C@H]1CC[C@@H](c2ccnc3ccc(F)cc32)CC1 [Example 41, 4-((1S,4s)-4-((R)-1-(4,5-difluoro-1H-benzo[d]imidazol-2-yl)ethyl)cyclohexyl)-6-fluoroquinoline]  3.4 nM
26. CCC(c1nc2ccc(Cl)cc2[nH]1)[C@H]1CC[C@@H](c2ccnc(F)c2C)CC1 (single isomer, unassigned) [Example 23-2, 6-chloro-2-(1-((cis)-4-(2-fluoro-3-methylpyridin-4-yl)cyclohexyl)-3-propyl)-1H-benzo[d]imidazole]  3.2 nM
27. CCC(c1nc2ncc(Cl)cc2[nH]1)[C@H]1CC[C@@H](c2ccnc3ccc(C(F)(F)F)cc32)CC1 (single isomer, unassigned) [Example 22-1, 4-((cis)-4-(1-(6-chloro-1H-imidazo[4,5-b]pyridin-2-yl)propyl)cyclohexyl)-6-(trifluoromethyl)quinoline]  2.4 nM
28. CC[C@H](c1nc2ncc(Cl)cc2[nH]1)[C@H]1CC[C@@H](c2ccnc3ccc(F)cc32)CC1 (single isomer, unassigned) [Example 21-1, 4-(4-(1-(6-chloro-1H-imidazo[4,5-b]pyridin-2-yl)propyl)cyclohexyl)-6-fluoroquinoline]  2 nM
